Test results reported in the supplement of paper PMC11208160.

test: recombinant UMI read abundance after kanamycin selection (control-corrected) (log10(CPM+1)); higher = more efficient recombination; extreme values may be limits of the assay; sequences stand for … in AGTGCAGAGAAAATCGGCCAGTTTTCTCTGCCTGCAGTCCGCATGCCGTGGGACCCCTTGGGTTCTAACCTGTTGCCTAGATTTATGCAGCGGACTGCCTTTCTCCCAAAGTGATAAACCGG…AGGTTGGTTTCACT; site = the 11-nt donor
How it was run: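 Values are reported as log10(CPM+1), obtained by converting sequencing counts to CPM, averaging replicates and scaling by control-derived factors. The counts came from recombinant UMIs amplified by PCR across the donor–target junction. These UMIs came from a pooled Escherichia coli screen of donor and donor-binding-loop pairs for the IS621 bridge recombinase, plated with IPTG (0.07 mM) plus kanamycin or left unselected, in two replicates each.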
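Note: IS621 bridge recombinase in Escherichia coli cells against a fixed T5 target plasmid.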

| Sequence | recombinant UMI read abundance (log10) |
| --- | --- |
| TACTTCACATGGACCGGTTTTCCCGGTAATCCGTATTTGCT (site TACTTAACTAG) | 0.0118 |
| TACTTCACATGGACCGGTTTTCCCGGTAATCCGTATTTGCT (site TACTTCACTAG) | 1.9 |
| TACTTCACATGGACCGGTTTTCCCGGTAATCCGTATTTGCT (site TACTTGACTAG) | 0.0117 |
| TACTTCACATGGACCGGTTTTCCCGGTAATCCGTATTTGCT (site TACTTTACTAG) | 0 |
| TACTTGACATGGACCGGTTTTCCCGGTAATCCGTATTTGGT (site TACTTGACTAA) | 0.109 |
| TACTTGACATGGACCGGTTTTCCCGGTAATCCGTATTTGGT (site TACTTGACTAC) | 0.209 |
| TACTTGACATGGACCGGTTTTCCCGGTAATCCGTATTTGGT (site TACTTGACTAG) | 0 |
| TACTTGACATGGACCGGTTTTCCCGGTAATCCGTATTTGGT (site TACTTGACTAT) | 0.179 |
| TAGAAAACATGGACCGGTTTTCCCGGTAATCCGTATTTGGA (site TAGAAAACTTC) | 0.76 |
| TAGAACACATGGACCGGTTTTCCCGGTAATCCGTATTTGCA (site TAGAAAACTTG) | 0 |
| TAGAACACATGGACCGGTTTTCCCGGTAATCCGTATTTGCA (site TAGAACACTTG) | 2.41 |
| TAGAACACATGGACCGGTTTTCCCGGTAATCCGTATTTGCA (site TAGAAGACTTG) | 0.271 |
| TAGAACACATGGACCGGTTTTCCCGGTAATCCGTATTTGCA (site TAGAATACTTG) | 1.87 |
| TAGAATACATGGACCGGTTTTCCCGGTAATCCGTATTTGAA (site TAGAATACTTA) | 0.0126 |
| TAGAATACATGGACCGGTTTTCCCGGTAATCCGTATTTGAA (site TAGAATACTTC) | 0.0116 |
| TAGAATACATGGACCGGTTTTCCCGGTAATCCGTATTTGAA (site TAGAATACTTG) | 0 |
| TAGAATACATGGACCGGTTTTCCCGGTAATCCGTATTTGAA (site TAGAATACTTT) | 0.686 |
| TAGAATACATGGACCGGTTTTCCCGGTAATCCGTATTTGCC (site TAGAATACTAG) | 0 |
| TAGAATACATGGACCGGTTTTCCCGGTAATCCGTATTTGCC (site TAGAATACTCG) | 0 |

| Sequence | recombinant UMI read abundance (log10) |
| --- | --- |
| TAGAATACATGGACCGGTTTTCCCGGTAATCCGTATTTGCC (site TAGAATACTGG) | 0 |
| TAGAATACATGGACCGGTTTTCCCGGTAATCCGTATTTGCC (site TAGAATACTTG) | 0 |
| TAGAATACATGGACCGGTTTTCCCGGTAATCCGTATTTGCT (site TAGAATACTAG) | 1.3 |
| TAGAATACATGGACCGGTTTTCCCGGTAATCCGTATTTGCT (site TAGAATACTCG) | 0.00353 |
| TAGAATACATGGACCGGTTTTCCCGGTAATCCGTATTTGCT (site TAGAATACTGG) | 0 |
| TAGAATACATGGACCGGTTTTCCCGGTAATCCGTATTTGCT (site TAGAATACTTG) | 0.00456 |
| TAGAATCCATGGACCGGTTTTCCCGGTAATCCGTATTTGCA (site TAGAATACTTG) | 0 |
| TAGAATCCATGGACCGGTTTTCCCGGTAATCCGTATTTGCA (site TAGAATCCTTG) | 1.16 |
| TAGAATCCATGGACCGGTTTTCCCGGTAATCCGTATTTGCA (site TAGAATGCTTG) | 0 |
| TAGAATCCATGGACCGGTTTTCCCGGTAATCCGTATTTGCA (site TAGAATTCTTG) | 0 |
| TAGAATGCATGGACCGGTTTTCCCGGTAATCCGTATTTGCA (site TAGAATACTTG) | 0.258 |
| TAGAATGCATGGACCGGTTTTCCCGGTAATCCGTATTTGCA (site TAGAATCCTTG) | 0.762 |
| TAGAATGCATGGACCGGTTTTCCCGGTAATCCGTATTTGCA (site TAGAATGCTTG) | 2.71 |
| TAGAATGCATGGACCGGTTTTCCCGGTAATCCGTATTTGCA (site TAGAATTCTTG) | 0.905 |
| TAGAATTCATGGACCGGTTTTCCCGGTAATCCGTATTTGCA (site TAGAATACTTG) | 0.907 |
| TAGAATTCATGGACCGGTTTTCCCGGTAATCCGTATTTGCA (site TAGAATCCTTG) | 0 |
| TAGAATTCATGGACCGGTTTTCCCGGTAATCCGTATTTGCA (site TAGAATGCTTG) | 0 |
| TAGAATTCATGGACCGGTTTTCCCGGTAATCCGTATTTGCA (site TAGAATTCTTG) | 1.53 |
| TAGACGCCATGGACCGGTTTTCCCGGTAATCCGTATTTGTG (site TAGACGCCTCA) | 0.00987 |

| Sequence | recombinant UMI read abundance (log10) |
| --- | --- |
| TAGCAGACATGGACCGGTTTTCCCGGTAATCCGTATTTGGT (site TAGCAGACTAC) | 0.868 |
| TAGCAGGCATGGACCGGTTTTCCCGGTAATCCGTATTTGCT (site TAGCAGGCTAG) | 1.19 |
| TAGCCTACATGGACCGGTTTTCCCGGTAATCCGTATTTGGT (site TAGCCTACTAC) | 0.00532 |
| TAGCCTACATGGACCGGTTTTCCCGGTAATCCGTATTTGGT (site TAGCCTCCTAC) | 0.0181 |
| TAGCCTACATGGACCGGTTTTCCCGGTAATCCGTATTTGGT (site TAGCCTGCTAC) | 0.0107 |
| TAGCCTACATGGACCGGTTTTCCCGGTAATCCGTATTTGGT (site TAGCCTTCTAC) | 0.0222 |
| TAGCCTTCATGGACCGGTTTTCCCGGTAATCCGTATTTGGC (site TAGCCTTCTAC) | 0.00487 |
| TAGCCTTCATGGACCGGTTTTCCCGGTAATCCGTATTTGGC (site TAGCCTTCTCC) | 0.0163 |
| TAGCCTTCATGGACCGGTTTTCCCGGTAATCCGTATTTGGC (site TAGCCTTCTGC) | 0 |
| TAGCCTTCATGGACCGGTTTTCCCGGTAATCCGTATTTGGC (site TAGCCTTCTTC) | 0.0129 |
| TAGCCTTCATGGACCGGTTTTCCCGGTAATCCGTATTTGTT (site TAGCCTTCTAA) | 1.08 |
| TAGCCTTCATGGACCGGTTTTCCCGGTAATCCGTATTTGTT (site TAGCCTTCTAC) | 0.0119 |
| TAGCCTTCATGGACCGGTTTTCCCGGTAATCCGTATTTGTT (site TAGCCTTCTAG) | 0.0127 |
| TAGCCTTCATGGACCGGTTTTCCCGGTAATCCGTATTTGTT (site TAGCCTTCTAT) | 0.00427 |
| TAGCGCGCATGGACCGGTTTTCCCGGTAATCCGTATTTGAC (site TAGCGCGCTGT) | 2.03 |
| TAGCGGTCATGGACCGGTTTTCCCGGTAATCCGTATTTGTT (site TAGCGGTCTAA) | 1.27 |
| TAGCTAGCATGGACCGGTTTTCCCGGTAATCCGTATTTGAA (site AAGCTAGCTTT) | 0.0472 |
| TAGCTAGCATGGACCGGTTTTCCCGGTAATCCGTATTTGAA (site CAGCTAGCTTT) | 0.178 |
| TAGCTAGCATGGACCGGTTTTCCCGGTAATCCGTATTTGAA (site GAGCTAGCTTT) | 0 |
